Reference: patent EP1137645B1, “ALPHA-METHYLBENZYL-CONTAINING THIOUREA INHIBITORS OF HERPES VIRUSES CONTAINING A […] GROUP” (Wyeth, priority 1998, dated 2000)
Values after ≈ are worked out from the molar mass of the structure shown. Like-named read-outs stand apart in the source and are kept apart here.

What was measured:
VZV strain Ellen = experiment: VZV antiviral (ELISA) assay; assay type: cell-based
How it was run: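 HFF cells infected with VZV Ellen at multiplicity below 0.1 overnight, then mixed infected/uninfected cells seeded with compound in DMEM/2% FBS and incubated three days at 37°C, 5% CO2.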

HSV- I = experiment: HSV antiviral (ELISA) assay; assay type: cell-based; conditions: read-out: IC50 (ug/ml) HSV
How it was run: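 Vero cells in DMEM with 2% FBS treated with compound 30 min before HSV-1 infection (MOI 0.006), then incubated ~24 h at 37°C. Viral replication measured by ELISA against glycoprotein D with β-galactosidase-linked secondary and fluorogenic substrate (ex 365/em 450 nm); IC50 relative to untreated fluorescence.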

[1] = system: HCMV recombinant mutant virus whose genome contains the prokaryotic beta-glucuronidase gene; experiment: microbe, parasite or virus in culture; assay type: cell-based, human cytomegalovirus; conditions: Human betaherpesvirus 5, Fibroblast
How it was run: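 Human foreskin fibroblasts infected with HCMV recombinant carrying beta-glucuronidase under a viral promoter (e.g. RV145) in presence of compound. At 96 h post-infection, lysates assayed for beta-glucuronidase by colorimetric or fluorogenic substrate as replication readout; IC50 estimated from varying compound amounts.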

[2] = Human alphaherpesvirus 3, HFF, read-out: IC50 (ug/ml) VZV, VZV strain Ellen, HFF cells, ELISA
[3] = read-out: IC50 ug/ml HCMV, HCMV, human foreskin fibroblasts
[4] = Human alphaherpesvirus 3, VZV strain Ellen, HFF cells, ELISA, read-out: IC50 (ug/ml) VZV

Row | SMILES | IC50 (VZV strain Ellen; [2]) | IC50 (HSV- I; Vero) | IC50 [1, 3] | IC50 (VZV strain Ellen; [4]) | IC50 (HSV- I; HSV- I, Vero cells, ELISA) | IC50 ([1]; read-out: IC50 ug/ml HCMV) | inhibition at 10 µg/mL (VZV strain Ellen; Human alphaherpesvirus 3, HFF, read-out: % inhibition 10 ug/ml VZV) | IC50 (VZV strain Ellen; Human alphaherpesvirus 3, HFF, read-out: IC50 (ug/ml) VZV)
1 | Cc1ccccc1C(C)NC(=S)Nc1ccc(NC(=O)c2ccccc2F)cc1 (stereo not shown) [Example 775, 2-Fluoro-N-{4-[3-(1-o-tolyl-ethyl)-thioureido]-phenyl}-benzamide] | > 7.5 µg/mL | > 10 µg/mL | 1 µg/mL (≈ 2.45 µM) | – | – | – | – | –
2 | Cc1cccc(C(C)NC(=S)Nc2ccc(NC(=O)c3ccccc3F)cc2)c1 (stereo not shown) [Example 776, 2-Fluoro-N-{4-[3-(1-m-tolyl-ethyl)-thioureido]-phenyl}-benzamide] | > 7.5 µg/mL | > 10 µg/mL | 0.9 µg/mL (≈ 2.21 µM) | – | – | – | – | –
3 | COc1ccc(C(C)NC(=S)Nc2ccc(NC(=O)c3ccccc3F)cc2)cc1 (stereo not shown) [Example 777, 2-Fluoro-N-(4-{3-[1-(4-methoxy-phenyl)-ethyl]-thioureido}-phenyl)-benzamide] | > 7.5 µg/mL | > 10 µg/mL | 1.7 µg/mL (≈ 4.01 µM) | – | – | – | – | –
4 | CC(NC(=S)Nc1ccc(NC(=O)c2ccccc2F)cc1)c1ccccc1F (stereo not shown) [Example 778, 2-Fluoro-N-(4-{3-[1-(2-fluoro-phenyl)-ethyl]-thioureido}-phenyl)-benzamide] | – | – | – | 3 µg/mL (≈ 7.29 µM) | > 10 µg/mL | 0.8 µg/mL (≈ 1.94 µM) | – | –
5 | CC(NC(=S)Nc1ccc(NC(=O)c2ccccc2F)cc1)c1cccc(Cl)c1 (stereo not shown) [Example 779, N-(4-{3-[1-(3-Chloro-phenyl)-ethyl]-thioureido}-phenyl)-2-fluoro-benzamide] | > 7.5 µg/mL | > 10 µg/mL | 1.2 µg/mL (≈ 2.8 µM) | – | – | – | – | –
6 | CC(NC(=S)Nc1ccc(NC(=O)c2ccccc2F)cc1)c1cccc(Br)c1 (stereo not shown) [Example 780, N-(4-{3-[1-(3-Bromo-phenyl)-ethyl]-thioureido}-phenyl)-2-fluoro-benzamide] | 1.2 µg/mL (≈ 2.54 µM) | > 10 µg/mL | 1 µg/mL (≈ 2.12 µM) | – | – | – | – | –
7 | CC(NC(=S)Nc1ccc(NC(=O)c2ccccc2F)cc1)c1ccc(Cl)cc1 (stereo not shown) [Example 781, N-(4-{3-[1-(4-Chloro-phenyl)-ethyl]-thioureido}-phenyl)-2-fluoro-benzamide] | 0.6 µg/mL (≈ 1.4 µM) | > 10 µg/mL | 1.8 µg/mL (≈ 4.21 µM) | – | – | – | – | –
8 | Cc1ccc(C(C)NC(=S)Nc2ccc(NC(=O)c3ccccc3F)cc2)cc1 (stereo not shown) [Example 782, 2-Fluoro-N-{4-[3-(1-p-tolyl-ethyl)-thioureido]-phenyl}-benzamide] | 3 µg/mL (≈ 7.36 µM) | > 10 µg/mL | 0.9 µg/mL (≈ 2.21 µM) | – | – | – | – | –
9 | CC(NC(=S)Nc1ccc(NC(=O)c2ccccc2F)cc1)c1ccccc1Br (stereo not shown) [Example 783, N-(4-{3-[1-(2-Bromo-phenyl)-ethyl]-thioureido}-phenyl)-2-fluoro-benzamide] | 0.3 µg/mL (≈ 0.635 µM) | > 10 µg/mL | 1.1 µg/mL (≈ 2.33 µM) | – | – | – | – | –
10 | CC(NC(=S)Nc1ccc(NC(=O)c2ccccc2F)cc1)c1ccccc1Cl (stereo not shown) [Example 784, N-(4-{3-[1-(2-Chloro-phenyl)-ethyl]-thioureido}-phenyl)-2-fluoro-benzamide] | 0.7 µg/mL (≈ 1.64 µM) | > 10 µg/mL | 1.1 µg/mL (≈ 2.57 µM) | – | – | – | – | –
11 | CC(NC(=S)Nc1ccc(NC(=O)c2ccccc2F)cc1)c1ccccc1C(F)(F)F (stereo not shown) [Example 785, 2-Fluoro-N-(4-{3-[1-(2-trifluoromethyl-phenyl)-ethyl]-thioureido}-phenyl)-benzamide] | – | – | – | > 7.5 µg/mL | > 10 µg/mL | > 2.2 µg/mL | – | –
12 | CC(NC(=S)Nc1ccc(NC(=O)c2ccccc2F)cc1)c1cccc(C(F)(F)F)c1 (stereo not shown) [Example 786, 2-Fluoro-N-(4-{3-[1-(3-trifluoromethyl-phenyl)-ethyl]-thioureido}-phenyl)-benzamide] | – | – | – | > 7.5 µg/mL | > 10 µg/mL | 1.5 µg/mL (≈ 3.25 µM) | – | –
13 | CC(NC(=S)Nc1ccc(NC(=O)c2ccccc2F)cc1)c1ccc(C(F)(F)F)cc1 (stereo not shown) [Example 787, 2-Fluoro-N-(4-{3-[1-(4-trifluoromethyl-phenyl)-ethyl]-thioureido}-phenyl)-benzamide] | – | – | – | > 7.5 µg/mL | > 10 µg/mL | 1.2 µg/mL (≈ 2.6 µM) | – | –
14 | COc1ccccc1C(C)NC(=S)Nc1ccc(NC(=O)c2ccccc2F)cc1 (stereo not shown) [Example 788, 2-Fluoro-N-(4-{3-[1-(2-methoxy-phenyl)-ethyl]-thioureido}-phenyl)-benzamide] | > 7.5 µg/mL | > 10 µg/mL | 1.8 µg/mL (≈ 4.25 µM) | – | – | – | – | –
15 | COc1cccc(C(C)NC(=S)Nc2ccc(NC(=O)c3ccccc3F)cc2)c1 (stereo not shown) [Example 789, 2-Fluoro-N-(4-{3-[1-(3-methoxy-phenyl)-ethyl]-thioureido}-phenyl)-benzamide] | 1.5 µg/mL (≈ 3.54 µM) | > 10 µg/mL | > 2.2 µg/mL | – | – | – | – | –
16 | CC(C)C(NC(=S)Nc1ccc(NC(=O)c2ccccc2F)cc1)c1ccc(F)cc1 (stereo not shown) [Example 790, 2-Fluoro-N-(4-{3-[1-(4-fluoro-phenyl)-2-methyl-propyl]-thioureido}-phenyl)-benzamide] | 2.5 µg/mL (≈ 5.69 µM) | > 10 µg/mL | 1.5 µg/mL (≈ 3.41 µM) | – | – | – | – | –

Row | SMILES | IC50 (VZV strain Ellen; [2]) | IC50 (HSV- I; Vero) | IC50 [1, 3] | IC50 (VZV strain Ellen; [4]) | IC50 (HSV- I; HSV- I, Vero cells, ELISA) | IC50 ([1]; read-out: IC50 ug/ml HCMV) | inhibition at 10 µg/mL (VZV strain Ellen; Human alphaherpesvirus 3, HFF, read-out: % inhibition 10 ug/ml VZV) | IC50 (VZV strain Ellen; Human alphaherpesvirus 3, HFF, read-out: IC50 (ug/ml) VZV)
17 | CC(NC(=S)Nc1ccc(NC(=O)c2ccccc2F)cc1)c1cccc(C#N)c1 (stereo not shown) [Example 791, N-(4-{3-[1-(3-Cyano-phenyl)-ethyl]-thioureido}-phenyl)-2-fluoro-benzamide] | – | – | – | 7 µg/mL (≈ 16.7 µM) | > 10 µg/mL | 7.3 µg/mL (≈ 17.4 µM) | – | –
18 | CC(NC(=S)Nc1ccc(NC(=O)c2ccccc2F)cc1)c1ccc(C#N)cc1 (stereo not shown) [Example 792, N-(4-{3-[1-(4-Cyano-phenyl)-ethyl]-thioureido}-phenyl)-2-fluoro-benzamide] | – | – | – | > 7.5 µg/mL | > 10 µg/mL | 5 µg/mL (≈ 11.9 µM) | – | –
19 | CC(NC(=S)Nc1ccc(NC(=O)c2ccccc2F)cc1)c1ccc(N(C)C)cc1 (stereo not shown) [Example 793, N-(4-{3-[1-(4-Dimethylamino-phenyl)-ethyl]-thioureido}-phenyl)-2-fluoro-benzamide] | 3.1 µg/mL (≈ 7.1 µM) | 9 µg/mL (≈ 20.6 µM) | 3.2 µg/mL (≈ 7.33 µM) | – | – | – | – | –
20 | CC(NC(=S)Nc1ccc(NC(=O)c2ccccc2F)cc1)c1cccc(N(C)C)c1 (stereo not shown) [Example 794, N-(4-{3-[1-(3-Dimethylamino-phenyl)-ethyl]-thioureido}-phenyl)-2-fluoro-benzamide] | 0.4 µg/mL (≈ 0.916 µM) | 7 µg/mL (≈ 16 µM) | 6.2 µg/mL (≈ 14.2 µM) | – | – | – | – | –
21 | CC(NC(=S)Nc1ccc(NC(=O)c2ccccc2Br)cc1)c1ccc(F)cc1 (stereo not shown) [Example 795, 2-Bromo-N-(4-{3-[1-(4-fluoro-phenyl)-ethyl]-thioureido}-pbenyl)-benzamide] | > 7.5 µg/mL | 8.6 µg/mL (≈ 18.2 µM) | 4.1 µg/mL (≈ 8.68 µM) | – | – | – | – | –
22 | O=C(Nc1ccc(NC(=S)NC(CO)c2ccccc2)cc1)c1ccccc1F (stereo not shown) [Example 797, 2-Fluoro-N-{4-[3-(2-hydroxy-1-phenyl-ethyl)-thioureido]-phenyl}-benzamide] | – | – | – | 1.7 µg/mL (≈ 4.15 µM) | > 10 µg/mL | > 10 µg/mL | – | –
23 | CC(NC(=S)Nc1ccc(NC(=O)c2ccccc2F)cc1)c1ccc2ccccc2c1 (stereo not shown) [Example 799, 2-Fluoro-N-{4-[3-(1-naphthalen-2-yl-ethyl)-thioureido]-phenyl}-benzamide] | > 7.5 µg/mL | > 10 µg/mL | 1.7 µg/mL (≈ 3.83 µM) | – | – | – | – | –
24 | CC(NC(=S)Nc1ccc(NC(=O)c2cccc(F)c2)cc1)c1ccc(F)cc1 (stereo not shown) [Example 800, 3-Fluoro-N-(4-{3-[1-(4-fluoro-phenyl)-ethyl]-thioureido}-phenyl)-benzamide] | – | – | – | > 7.5 µg/mL | > 10 µg/mL | > 10 µg/mL | – | –
25 | CC(NC(=S)Nc1ccc(NC(=O)c2ccc(F)cc2)cc1)c1ccc(F)cc1 (stereo not shown) [Example 801, 4-Fluoro-N-(4-{3-[1-(4-fluoro-phenyl)-ethyl]-thioureido}-phenyl)-benzamide] | – | – | – | > 7.5 µg/mL | > 10 µg/mL | > 10 µg/mL | – | –
26 | CCOc1ccc(NC(=S)Nc2ccc(NC(=O)c3ccccc3F)cc2)cc1Cl [Example 806, N-{4-[3-(3-Chloro-4-ethoxy-phenyl)-thioureido]-phenyl}-2-fluoro-benzamide] | > 7.5 µg/mL | > 10 µg/mL | > 10 µg/mL | – | – | – | – | –
27 | CCCOc1ccc(NC(=S)Nc2ccc(NC(=O)c3ccccc3F)cc2)cc1Cl [Example 807, N-{4-[3-(3-Chloro-4-propoxy-phenyl)-thioureido]-phenyl}-2-fluoro-benzamide] | 0.9 µg/mL (≈ 1.97 µM) | > 10 µg/mL | 10 µg/mL (≈ 21.8 µM) | – | – | – | – | –
28 | CC(C)Oc1ccc(NC(=S)Nc2ccc(NC(=O)c3ccccc3F)cc2)cc1Cl [Example 808, N-{4-[3-(3-Chloro-4-isopropoxy-phenyl)-thioureido]-phenyl}-2-fluoro-benzamide] | > 7.5 µg/mL | > 10 µg/mL | > 10 µg/mL | – | – | – | – | –
29 | CCCCOc1ccc(NC(=S)Nc2ccc(NC(=O)c3ccccc3F)cc2)cc1Cl [Example 809, N-{4-[3-(4-Butoxy-3-chloro-phenyl)-thioureido]-phenyl}-2-fluoro-benzamide] | > 7.5 µg/mL | > 10 µg/mL | > 10 µg/mL | – | – | – | – | –
30 | COc1ccc(NC(=S)Nc2ccc(NC(=O)c3ccccc3F)cc2)cc1I [Example 810, 2-Fluoro-N-{4-[3-(3-iodo-4-methoxy-phenyl)-thioureido]-phenyl}-benzamide] | – | – | – | > 7.5 µg/mL | 1.1 µg/mL (≈ 2.11 µM) | 2.7 µg/mL (≈ 5.18 µM) | – | –
31 | COc1ccc(NC(=S)Nc2ccc(NC(=O)c3ccccc3F)cc2)cc1Br [Example 811, N-{4-[3-(3-Bromo-4-methoxy-phenyl)-thioureido]-phenyl}-2-fluoro-benzamide] | > 7.5 µg/mL | 0.8 µg/mL (≈ 1.69 µM) | 3.1 µg/mL (≈ 6.54 µM) | – | – | – | – | –
32 | COc1ccc(NC(=S)Nc2ccc(NC(=O)c3ccccc3)cc2)cc1Cl [Example 817, N-{4-[3-(3-Chloro-4-methoxy-phenyl)-thioureido]-phenyl}-benzamide] | – | – | 2 µg/mL (≈ 4.86 µM) | – | 1 µg/mL (≈ 2.43 µM) | – | 66% | 12 µg/mL (≈ 29.1 µM)
